{"source": "patent US20070167408A1", "about": "“NOVEL ALKYL PHOSPHOLIPID DERIVATIVES WITH REDUCED CYTOTOXICITY AND USES THEREOF” (ZENTARIS GmbH, priority 2005, published 2007)", "key": {"[1]": {"tested_on": "Aspergillus fumigatus ATCC 204305", "assay": "Anti-fungal broth microdilution (MIC), fungus A", "type": "cell-based", "settings": "filamentous protocol, more than 50% growth inhibition, 48 to 72 h", "method": "(§1) Anti-fungal activity of selected compounds of the invention was assessed by means of anti-fungal susceptibility tests as follows.\n(§2) The antifungal activities of the compounds of the invention against different fungi were measured according to standard broth microdilution methods of the US National Committee for Clinical Laboratory standards (NCCLS) for yeasts (NCCLS document M27-A, 1997) and filamentous fungi (NCCLS document M38-A, 2002).\n(§3) Stock solutions of compounds of the invention were freshly prepared on the days of experiments equal to 1.28 mg/10 ml media. Serial dilutions were performed to achieve the following testing concentrations: 64 μg/ml, 32 μg/ml, 16 μg/ml, 8 μg/ml, 4 μg/ml, 2 μg/ml, 1 μg/ml, 0.5 μg/ml, 0.25 μg/ml and 0.125 μg/ml.\n(§4) An inoculum of 10^6 CFU/ml of the fungi strain was prepared in the appropriate medium and transferred to test tubes for incubation.\n(§5) The method is used to determine the minimum inhibitory concentrations (MIC) of drugs on fungi strains. […] For the filamentous fungi protocol, MIC determination took place after 48 to 72 h of culture at 35° C. and was defined at that concentration which produced more than 50% visible growth inhibition."}, "[2]": {"tested_on": "Cryptococcus neoformans ATCC 90112", "assay": "Anti-fungal broth microdilution (MIC), fungus H", "type": "cell-based", "settings": "yeast protocol, more than 80% inhibition, 48 h", "method": "as §1, §2, §3, §4, §5"}, "[3]": {"tested_on": "Candida parapsilosis ATCC 22019", "assay": "Anti-fungal broth microdilution (MIC), fungus G", "type": "cell-based", "settings": "yeast protocol, more than 80% inhibition, 48 h", "method": "as §1, §2, §3, §4, §5"}, "[4]": {"tested_on": "Aspergillus fumigatus 040-200167", "assay": "Anti-fungal broth microdilution (MIC), fungus C", "type": "cell-based", "settings": "filamentous protocol, more than 50% growth inhibition, 48 to 72 h", "method": "as §1, §2, §3, §4, §5"}, "[5]": {"tested_on": "Aspergillus fumigatus 322-384", "assay": "Anti-fungal broth microdilution (MIC), fungus B", "type": "cell-based", "settings": "filamentous protocol, more than 50% growth inhibition, 48 to 72 h", "method": "as §1, §2, §3, §4, §5"}, "[6]": {"tested_on": "Trypanosoma brucei rhodesiense (strain STIB900)", "assay": "In vitro drug activity assay, protozoon B", "type": "cell-based", "settings": "bloodstream form trypomastigotes, 72 hours, Alamar Blue", "method": "(§6) In vitro activity of selected compounds of the invention against different protozoa was assessed as follows.\nTrypanosoma brucei rhodesiense STIB900 bloodstream form trypomastigotes were maintained in HMI-18 medium (Hirumi H, Hirumi K, J Parasitol. 1989, 75(6):985-989) with 15% heat-inactivated fetal calf serum at 37° C., 5% CO2, humidified atmosphere. Trypomastigotes were washed and resuspended in fresh medium at a concentration of 2×10^5 mL. Test compounds were given to the trypomastigotes and plates were incubated for 72 hours at 37° C., 5% CO2, humidified atmosphere. At 72 hours the plates were assessed microscopically before Alamar Blue was added (Raz et al., Acta Trop. 1997, 68: 139-147). Plates were read after 5 to 6 hours at EX/EM 530/585 nm with a filter cutoff at 550 nm. ED50 values were calculated with Msxlfit (IDBS).\n(§7) The following protozoa were assessed: • A) Trypanosoma cruzi (Tulahuan-LACZ amstigotes in PEM, Lorente S O et al., Antimicrobial agents and chemotherapy 2004, 48(8): 2937-2950; Buckner et al., Infection and Immunity 1999, 67(1): 403-409; Buckner et al., Antimicrobial Agents and Chemotherapy 1996, 40(11): 2592-2597) • B) Trypanosoma brucei rhodesiense (strain STIB900, Lorente S O et al., Antimicrobial agents and chemotherapy 2004, 48(8): 2937-2950; Habtemariam S, BMC Pharmacology 2003, 3:6) • C) Plasmodium falciparum (strain K1, Korsinczky M et al., Antimicrobial agents and chemotherapy 2000, 44(8): 2100-2108; Thaitong S and Beale G H, Trans. R. Soc. Trop. Med. Hyg. 1981, 75: 271-273; Trager W and Jensen J B, Science 1976, 193: 673-675) • D) Plasmodium faiciparum (strain 3D7, Mu et al., PLoS Biology 2005, 3(10): e335)"}, "[7]": {"tested_on": "Cryptococcus gattii ATCC 32608", "assay": "Anti-fungal broth microdilution (MIC), fungus J", "type": "cell-based", "settings": "yeast protocol, more than 80% inhibition, 48 h", "method": "as §1, §2, §3, §4, §5"}, "[8]": {"tested_on": "Cryptococcus neoformans H99", "assay": "Anti-fungal broth microdilution (MIC), fungus I", "type": "cell-based", "settings": "yeast protocol, more than 80% inhibition, 48 h", "method": "as §1, §2, §3, §4, §5"}, "[9]": {"tested_on": "Plasmodium falciparum (strain K1)", "assay": "In vitro drug activity assay, protozoon C", "type": "cell-based", "settings": "strain K1, 3[H]-hypoxanthine method", "method": "as §6\n(§8) Plasmodium falciparum strain K1 and strain 3D7 parasites were cultured according to Trager W and Jensen J B (Science 1976, 193: 673-675). In vitro drug susceptibility assays with the test compounds were carried out according to Korsinczky M et al. (Antimicrobial agents and chemotherapy 2000, 44(8): 2100-2108) and Fivelman Q L et al. (Antimicrobial agents and chemotherapy 2004, 48(11): 4097-4102) using a ^3[H]-hypoxanthine radioisotope method. ED50 values were calculated with Msxlfit (IDBS).\nas §7"}, "[10]": {"tested_on": "Candida albicans ATCC 90028", "assay": "Anti-fungal broth microdilution (MIC), fungus E", "type": "cell-based", "settings": "yeast protocol, more than 80% inhibition, 48 h", "method": "as §1, §2, §3, §4, §5"}, "[11]": {"tested_on": "Candida albicans ATCC 10231", "assay": "Anti-fungal broth microdilution (MIC), fungus D", "type": "cell-based", "settings": "yeast protocol, more than 80% inhibition, 48 h", "method": "as §1, §2, §3, §4, §5"}, "[12]": {"tested_on": "Plasmodium faiciparum (strain 3D7)", "assay": "In vitro drug activity assay, protozoon D", "type": "cell-based, Plasmodium falciparum", "settings": "strain 3D7, 3[H]-hypoxanthine method", "method": "as §6, §8, §7"}, "Candida albicans TS3": {"tested_on": "Candida albicans TS3", "assay": "Anti-fungal broth microdilution (MIC), fungus F", "type": "cell-based", "settings": "yeast protocol, more than 80% inhibition, 48 h", "method": "as §1, §2, §3, §4, §5"}, "[13]": {"tested_on": "Trypanosoma cruzi (Tulahuan-LACZ amstigotes in PEM)", "assay": "In vitro drug activity assay, protozoon A", "type": "cell-based", "settings": "amastigotes in murine peritoneal macrophages, 3 days", "method": "as §6\nMurine (CD1) peritoneal macrophages were harvested 24 hours after starch induction and dispensed into 96-well plates at a concentration of 4×10^5 mL. After 24 hours, the cells were infected with Trypanosoma cruzi Tulahuan LAC-Z amastigotes (grown and cultured according to Buckner et al., Infection and Immunity 1999, 67(1): 403-409). 24 hours later, the infected cells were exposed to the test compounds (compounds of the invention as well as known prior art compounds) for 3 days and 50 μL of 500 μM CPRG-1% Nonidet P-40 was added to each well. The plates were read after 2 to 5 hours at 570 nm (Buckner et al., Antimicrobial Agents and Chemotherapy 1996, 40(11): 2592-2597). ED50 values were calculated with Msxlfit (IDBS).\nas §7"}, "[14]": {"tested_on": "Moraxella catarrhalis DMS 11994 (ATCC 43617)", "assay": "Anti-bacterial bouillon microdilution assay (MIC), bacterium D", "type": "cell-based", "settings": "24 h", "method": "(§9) Selected compounds of the invention were tested in a bouillon microdilution assay method according to the DIN 58940 (www.din.de) guidelines for determination of susceptibility of bacterial strains with regard to cell growth inhibition. The assay method quantifies bacterial cell growth which corresponds to the turbidity of the liquid culture medium by photometric measurement carried out at 595 nm.\n(§10) The method of MIC determination was performed according to DIN 58940-5. The volumina were adapted according to the microdilution method as described in DIN 58940-7 guideline.\n(§11) Dependent on water solubility, compounds of the invention were dissolved either in water or ethanol in a concentration of 10 mg/ml. Subsequently, the stock was further diluted in water to a concentration of 512 μg/ml. The following serial dilutions (factor 2) were performed in water resulting in the following […] testing concentrations: 256 μg/ml, 128 μg/ml, 64 μg/ml, 32 μg/ml, 16 μg/ml, 8 μg/ml, 4 μg/ml, 2 μg/ml, 1 μg/ml, 0.5 μg/ml, 0.25 μg/ml and 0.125 μg/ml. Diluted compounds of the invention were transferred in 100 μl volume to the microtiter plate wells.\n(§12) Pre-cultures of bacteria were grown in appropriate liquid media (refer to ATCC webpage, www.atcc.org) and afterwards were inoculated in corresponding liquid medium. 100 μl of the inoculums [adjusted to an amount of app. 1×10^6 microorganisms per ml (range of 10^5-10^8 microorganisms per ml)] were added to each of the testing compound concentrations and cultivated under the appropriate conditions.\n(§13) Before and after incubation, bacterial growth was determined by photometric analysis against a positive control containing growing bacteria without compound and a sterile/negative control containing only the medium."}, "[15]": {"tested_on": "Bacteroides fragilis DSM 2151 (ATCC 25285)", "assay": "Anti-bacterial bouillon microdilution assay (MIC), bacterium E", "type": "cell-based", "settings": "anaerob, 24 h", "method": "as §9, §10, §11, §12, §13"}}, "data": [{"smiles": "CCCCCCCCCCCCCCCCOP(=O)([O-])OC1CC[N+](C)(Cc2ccccc2)CC1", "note": "(stereo not drawn) [Compound 1, Phosphoric acid 1-benzyl-1-methyl-piperidin-4-yl ester hexadecyl ester]", "values": [{"measurement": "MIC, fungus A", "setting": "[1]", "result": 2, "unit": "mg/L"}, {"measurement": "MIC, fungus H", "setting": "[2]", "result": 1.5, "unit": "mg/L"}, {"measurement": "MIC, fungus G", "setting": "[3]", "result": 3, "unit": "mg/L"}, {"measurement": "MIC, fungus C", "setting": "[4]", "result": 4, "unit": "mg/L"}, {"measurement": "MIC, fungus B", "setting": "[5]", "result": 2, "unit": "mg/L"}, {"measurement": "ED50 (μg/mL), protozoon B", "setting": "[6]", "result": 18.80, "unit": "µg/mL"}, {"measurement": "MIC, fungus J", "setting": "[7]", "result": 1, "unit": "mg/L"}, {"measurement": "MIC, fungus I", "setting": "[8]", "result": 2, "unit": "mg/L"}, {"measurement": "ED50 (μg/mL), protozoon C", "setting": "[9]", "result": 6.93, "unit": "µg/mL"}, {"measurement": "MIC, fungus E", "setting": "[10]", "result": 1, "unit": "mg/L"}, {"measurement": "MIC, fungus D", "setting": "[11]", "result": 2, "unit": "mg/L"}, {"measurement": "ED50 (μg/mL), protozoon D", "setting": "[12]", "result": 9.97, "unit": "µg/mL"}, {"measurement": "MIC, fungus F", "setting": "Candida albicans TS3", "result": 1.5, "unit": "mg/L"}, {"measurement": "ED50 (μg/mL), protozoon A", "setting": "[13]", "result": 1.71, "unit": "µg/mL"}]}, {"smiles": "CCCCCCCCCCCCCCCCOP(=O)([O-])OCC[N+]12CCC(CC1)CC2", "note": "[Compound 3, Phosphoric acid 2-(1-aza-bicyclo[2.2.2]oct-1-yl)-ethyl ester hexadecyl ester]", "values": [{"measurement": "MIC, fungus A", "setting": "[1]", "result": 3, "unit": "mg/L"}, {"measurement": "MIC, fungus H", "setting": "[2]", "result": 1.5, "unit": "mg/L"}, {"measurement": "MIC, fungus G", "setting": "[3]", "result": 2, "unit": "mg/L"}, {"measurement": "MIC, fungus C", "setting": "[4]", "result": 4, "unit": "mg/L"}, {"measurement": "MIC, bacterium D", "setting": "[14]", "result": 8, "unit": "mg/L"}, {"measurement": "MIC, fungus B", "setting": "[5]", "result": 2, "unit": "mg/L"}, {"measurement": "ED50 (μg/mL), protozoon B", "setting": "[6]", "result": 25.03, "unit": "µg/mL"}, {"measurement": "MIC, fungus J", "setting": "[7]", "result": 0.75, "unit": "mg/L"}, {"measurement": "MIC, fungus I", "setting": "[8]", "result": 1, "unit": "mg/L"}, {"measurement": "ED50 (μg/mL), protozoon C", "setting": "[9]", "result": 8.03, "unit": "µg/mL"}, {"measurement": "MIC, fungus E", "setting": "[10]", "result": 1, "unit": "mg/L"}, {"measurement": "MIC, fungus D", "setting": "[11]", "result": 1, "unit": "mg/L"}, {"measurement": "MIC, bacterium E", "setting": "[15]", "result": 128, "unit": "mg/L"}, {"measurement": "ED50 (μg/mL), protozoon D", "setting": "[12]", "result": 2.25, "unit": "µg/mL"}, {"measurement": "MIC, fungus F", "setting": "Candida albicans TS3", "result": 2, "unit": "mg/L"}, {"measurement": "ED50 (μg/mL), protozoon A", "setting": "[13]", "result": 0.33, "unit": "µg/mL"}]}]}
